According to patent US8729271B2, “Glycine transporter inhibiting substances” (Taisho Pharmaceutical Co., Ltd, priority 2010, dated 2014):
Several values for one entry are separate records, joined by “and”; a condition that tells them apart may be missing. Equal values may be shown once.

How the values were obtained:
[1] = target: T1, human type 1 glycine transporter (GlyT1) (Homo sapiens, UniProt P48067); experiment: Glycine uptake inhibition experiment ([3H]glycine uptake in T98G cells); type: cell-based; details: T98G glioma cells; [3H]glycine 250 nM; 10-min pretreatment; 15 min at room temperature; read-out: glycine uptake inhibiting activity (IC50)
T1 construct: Used in the experiment were T98G cells (glioma cells) developing a human type 1 glycine transporter of (GlyT1); endogenous in cells; host or cells: T98G human glioma cells
T1 sequence (P48067 1-706): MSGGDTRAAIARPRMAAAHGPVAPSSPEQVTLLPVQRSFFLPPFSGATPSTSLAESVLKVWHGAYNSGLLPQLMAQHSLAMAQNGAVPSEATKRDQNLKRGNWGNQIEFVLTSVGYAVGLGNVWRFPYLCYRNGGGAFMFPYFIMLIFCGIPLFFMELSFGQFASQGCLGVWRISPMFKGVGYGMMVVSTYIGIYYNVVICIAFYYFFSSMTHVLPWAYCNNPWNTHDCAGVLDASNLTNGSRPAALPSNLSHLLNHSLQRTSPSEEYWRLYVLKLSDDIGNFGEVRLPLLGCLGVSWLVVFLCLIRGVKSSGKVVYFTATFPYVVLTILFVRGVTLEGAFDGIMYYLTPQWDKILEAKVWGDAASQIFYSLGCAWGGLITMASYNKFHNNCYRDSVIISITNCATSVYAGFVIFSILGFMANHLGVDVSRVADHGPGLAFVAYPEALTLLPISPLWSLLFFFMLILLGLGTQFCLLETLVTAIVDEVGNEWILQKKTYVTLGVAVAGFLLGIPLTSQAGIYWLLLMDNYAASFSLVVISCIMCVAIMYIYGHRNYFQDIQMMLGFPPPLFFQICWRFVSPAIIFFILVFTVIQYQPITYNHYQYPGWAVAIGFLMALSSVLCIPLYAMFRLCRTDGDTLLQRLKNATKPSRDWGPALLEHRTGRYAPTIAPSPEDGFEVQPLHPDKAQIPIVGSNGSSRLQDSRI
Description: A glycine uptake inhibition experiment was conducted in accordance with the method described in Neuron, 8, 927-935, 1992. Used in the experiment were T98G cells (glioma cells) developing a human type 1 glycine transporter of (GlyT1). The T98G cells were seeded in a 96-well plate at a density of 2.0×10^4 cells per well and cultured overnight in a CO2 incubator. The test substance was first dissolved in a 100% DMSO solution and then dissolved in a 10 mM HEPES buffer solution (pH 7.4) supplemented with 150 mM sodium chloride, 1 mM calcium chloride, 5 mM potassium chloride, 1 mM magnesium chloride, 10 mM glucose, and 0.2% bovine serum albumin. After removing the cell culture medium, the test substance was subjected to a 10-min pretreatment. Thereafter, the test substance and [^3H] glycine (final concentration: 250 nM) were added to the cells and reaction was performed at room temperature for 15 minutes. After the end of the reaction, the extracellular fluid was aspirated with a manifold to remove the excess marker glycine present outside of the cells; thereafter, the cells were lysed with an aqueous solution of 0.5 M sodium hydroxide. The glycine content in the cells was determined by measuring the radioactivity in the cell lysate with a liquid scintillation counter. With the amount of glycine uptake in the presence of 10 μM ALX5407 being referred to as the nonspecific uptake, the amount of specific uptake was calculated by subtracting the amount of nonspecific uptake from the total amount of uptake in the absence of 10 μM ALX5407. In addition, glycine uptake inhibiting activity (IC50) was calculated from an inhibition curve for the concentration of the test substance ranging from 10^−9 to 10^−5 M.
It should be noted that ALX5407 is a HCl salt of N-[(3R)-3-([1,1′-biphenyl]-4-yloxy)-3-(4-fluorophenyl)propyl]-N-methylglycine.
Incidentally, Compound 56 which is recited as 2HCl salt in the above Table 1-6 was subjected to measurement as its free form in the Glycine Uptake Inhibition Experiment.

[2] = target: T2, P-glycoprotein (P-gp), Human MDR1 (Homo sapiens, UniProt P08183); experiment: Test for recognizability of P-gp substrate (LLC-GAS-COL 300 cells, Transwell); type: in vitro ADME; details: 10 μM; LLC-GAS-COL 300 cells (Human MDR1 in LLC-PK1); criteria of Nature Reviews Drug Discovery (2010) 9, 215-236
T2 construct: expressed in transfected cells; host or cells: LLC-GAS-COL 300 cells (derived from pig kidney LLC-PK1)
T2 sequence (P08183 whole entry): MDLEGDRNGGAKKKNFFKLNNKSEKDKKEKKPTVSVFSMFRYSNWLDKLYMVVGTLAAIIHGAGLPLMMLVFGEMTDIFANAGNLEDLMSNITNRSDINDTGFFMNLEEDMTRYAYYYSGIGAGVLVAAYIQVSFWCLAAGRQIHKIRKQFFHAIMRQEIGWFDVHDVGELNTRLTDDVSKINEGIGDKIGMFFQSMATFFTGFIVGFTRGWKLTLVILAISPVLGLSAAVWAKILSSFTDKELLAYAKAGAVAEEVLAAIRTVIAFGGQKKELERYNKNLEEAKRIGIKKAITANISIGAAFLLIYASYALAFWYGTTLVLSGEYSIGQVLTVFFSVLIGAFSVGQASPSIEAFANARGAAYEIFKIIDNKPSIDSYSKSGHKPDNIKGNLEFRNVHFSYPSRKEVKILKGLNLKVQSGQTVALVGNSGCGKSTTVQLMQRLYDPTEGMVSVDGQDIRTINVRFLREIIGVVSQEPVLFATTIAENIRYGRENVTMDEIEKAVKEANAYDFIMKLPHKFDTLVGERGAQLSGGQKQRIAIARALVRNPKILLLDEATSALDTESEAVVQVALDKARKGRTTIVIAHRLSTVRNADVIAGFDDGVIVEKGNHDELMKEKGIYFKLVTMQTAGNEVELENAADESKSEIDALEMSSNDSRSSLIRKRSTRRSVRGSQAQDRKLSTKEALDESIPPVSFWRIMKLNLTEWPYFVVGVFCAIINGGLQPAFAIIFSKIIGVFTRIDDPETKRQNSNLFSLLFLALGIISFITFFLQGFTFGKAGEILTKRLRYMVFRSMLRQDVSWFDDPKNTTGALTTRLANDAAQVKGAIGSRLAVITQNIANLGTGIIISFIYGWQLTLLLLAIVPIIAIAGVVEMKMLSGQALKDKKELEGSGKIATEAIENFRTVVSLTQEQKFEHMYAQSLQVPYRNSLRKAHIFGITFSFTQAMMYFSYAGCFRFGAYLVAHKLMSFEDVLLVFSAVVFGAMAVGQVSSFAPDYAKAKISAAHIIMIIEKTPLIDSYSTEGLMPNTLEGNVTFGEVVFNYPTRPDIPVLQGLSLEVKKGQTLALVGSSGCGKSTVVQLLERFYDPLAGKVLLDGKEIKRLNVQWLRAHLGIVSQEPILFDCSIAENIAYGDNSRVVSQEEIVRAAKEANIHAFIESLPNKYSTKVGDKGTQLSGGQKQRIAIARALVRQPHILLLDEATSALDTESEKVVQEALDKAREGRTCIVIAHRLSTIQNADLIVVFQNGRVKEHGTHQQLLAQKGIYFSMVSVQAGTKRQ
Text: In order that drugs acting on the central nervous system will develop their efficacy, their passage from the blood to the brain is generally important. While various efflux transporters are present at the blood-brain barrier to control this passage of drugs, P-glylcoprotein (P-gp) is a typical example and inhibits the passage to the brain of any drugs that serve as the substrate for P-gp. Therefore, in the development of pharmaceuticals, nonrecognizability of a candidate drug as the substrate for P-gp is the key to its passage to the brain.
A test for recognizability of P-gp substrate was performed in accordance with a modified version of the methods described in J Pharmacol. Exp. Ther. (1992) Vol. 263, No. 2, 840-845 and J Biol. Chem. (1992) Vol. 267, No. 34, 24248-24252. To be more specific, LLC-GAS-COL 300 cells (Human MDR1 expressing system derived from pig kidney derived, cultured renal epithelial cell line LLC-PK1) were cultured for 4 days on a Transwell and replaced by a Hank's balanced salt solution (HBSS) in each well just before the test. A solution of an assay compound (a DMSO solution of the compound as diluted with HBSS and adjusted to a final concentration of 10 μM) was added to the donor side of the LLC-GAS-COL 300 cells and a prescribed amount of HBSS was collected from the acceptor side at given time intervals and the concentration of the assay compound in the collected sample was measured by LC-MS/MS.
From the cumulative amount of the compound's permeation into the acceptor, the membrane permeability coefficient (×10^−6 cm/sec) was calculated for each of apical→basal mode and basal→apical mode and the recognizability of P-gp substrate was assessed in terms of the ratio between the two modes (efflux ratio).

Row | IC50 [1] | SMILES | recognizability as P-gp substrate (from efflux ratio basal→apical / apical→basal) [2]
1 | ≥ 1000 nM | CC(C)N(Cc1ccc(F)c(-c2ncc[nH]2)c1)C(=O)c1cn(C)cn1 [Compound 29] | –
2 | 7.3 nM | CC(C)N(Cc1ccnc(-c2ccc(OC(F)(F)F)cc2)c1)C(=O)c1cn(C)cn1 [Compound 30] | not recognizable as the substrate for P-gp
3 | ≥ 1000 nM | CC(C)N(Cc1ccnc(-c2ccc(F)cc2)c1)C(=O)c1c[nH]cn1 [Compound 42] | –
4 | ≥ 1000 nM | Cn1cnc(C(=O)N(CCC(F)(F)F)Cc2ccnc(-c3ccc(F)cc3)c2)c1 [Compound 52] | –
5 | ≥ 1000 nM | Cc1cccc(C)c1-c1cc(CN(C(=O)c2cn(C)cn2)C(C)C)ccn1 [Compound 63] | –
6 | 15 nM | CC(C)N(Cc1ccc(F)c(-n2ccnc2)c1)C(=O)c1cn(C)cn1 [Compound 74] | –
7 | 3.5 nM | Cn1cnc(C(=O)N(Cc2ccnc(-c3ccc(OC(F)(F)F)cc3)c2)C2CCC2)c1 [Compound 107] | –
8 | ≥ 1000 nM | CC(C)N(Cc1ccnc(-c2ccccc2OC(F)(F)F)c1)C(=O)c1cn(C)cn1 [Compound 111] | –
9 | 8 nM | Cn1cnc(C(=O)N(Cc2ccc(F)c(-c3ccc(F)nc3)c2)C2CCC2)c1 [Compound 120] | –
10 | 160 nM | Cc1cnn(-c2cc(CN(C(=O)c3cn(C)cn3)C(C)C)ccc2F)c1 [Compound 121] | –
11 | ≥ 1000 nM | Cc1cn(-c2cc(CN(C(=O)c3cn(C)cn3)C(C)C)ccc2F)c(C)n1 [Compound 132] | –
12 | ≥ 1000 nM | CC(C)N(Cc1ccnc(-c2cc(F)ccc2C(F)(F)F)c1)C(=O)c1cn(C)cn1 [Compound 137] | –
13 | ≥ 1000 nM | CC(C)N(Cc1noc(-c2ccc(Cl)cc2)n1)C(=O)c1cn(C)cn1 [Compound 138] | –
14 | ≥ 1000 nM | CC(C)N(Cc1ccc(F)c(-c2ccc(F)nc2)c1)C(=O)c1c[nH]cn1 [Compound 141] | –
15 | 64 nM | Cc1cn(-c2cc(CN(C(=O)c3cn(C)cn3)C(C)C)ccc2F)cn1 [Compound 143] | –
16 | ≥ 1000 nM | CC(C)N(Cc1ccnc(-c2ccc(OC(F)(F)F)cc2)c1)C(=O)c1c[nH]cn1 [Compound 146] | –
17 | 30 nM | CC(c1ccnc(-c2ccc(F)cc2)c1)N(C(=O)c1cn(C)cn1)C1CCC1 (stereo not drawn) [Compound 153] | –
18 | 5.8 nM | Cn1cnc(C(=O)N(Cc2csc(-c3ccc(OC(F)(F)F)cc3)n2)C2CCC2)c1 [Compound 155] | –
19 | 330 nM | Cn1cnc(C(=O)N(Cc2nc(-c3ccc(OC(F)(F)F)cc3)no2)C2CCC2)c1 [Compound 160] | –
20 | 12 nM | Cn1cnc(C(=O)N(Cc2ccc(F)c(-c3ccc(N4CCCC4)nc3)c2)C2CCC2)c1 [Compound 161] | –
21 | ≥ 1000 nM | Cn1cnc(C(=O)N(Cc2ccc(F)c(-c3cccnc3C(F)(F)F)c2)C2CCOCC2)c1 [Compound 168] | –
22 | 16 nM | Cn1cnc(C(=O)N(Cc2ccnc(-c3cc(F)c(F)cc3F)c2)C2CCC2)c1 [Compound 191] | –
23 | 14 nM | Cn1cnc(C(=O)N(Cc2ccc(F)c(-c3cc(C(F)(F)F)ncn3)c2)C2CCC2)c1 [Compound 208] | –
24 | 3.7 nM | Cn1cnc(C(=O)N(Cc2ccnc(-c3ccc(F)c(OC(F)F)c3)c2)C2CCC2)c1 [Compound 213] | –

The remaining lines, values behind:

Row | SMILES | IC50 [1] | recognizability as P-gp substrate (from efflux ratio basal→apical / apical→basal) [2]
25 | CCCN(Cc1cc(-c2ccccc2)ccn1)C(=O)c1cn(C)cn1 [Compound 5] | ≥ 1000 nM and 1400 nM | –
26 | CC(C)N(Cc1ccc(F)c(-c2ccc(F)nc2)c1)C(=O)c1cn(C)cn1 [Compound 9] | – | not recognizable as the substrate for P-gp
27 | CC(C)N(Cc1ccc(F)c(-c2ccccn2)c1)C(=O)c1cn(C)cn1 [Compound 14] | 18 nM | not recognizable as the substrate for P-gp
28 | CC(C)N(Cc1ccc(F)c(-c2cncc(F)c2)c1)C(=O)c1cn(C)cn1 [Compound 15] | – | not recognizable as the substrate for P-gp
29 | CC(C)N(Cc1ccc(F)c(-c2cccc3ncccc23)c1)C(=O)c1cn(C)cn1 [Compound 24] | ≥ 1000 nM | –
30 | Cc1n[nH]c(C)c1-c1cc(CN(C(=O)c2cn(C)cn2)C(C)C)ccc1F [Compound 25] | ≥ 1000 nM | –
31 | CC(C)N(Cc1ccnc(-c2ccc(F)cc2)c1)C(=O)c1cn(C)cn1 [Compound 31] | – | not recognizable as the substrate for P-gp
32 | CC(C)N(Cc1ccnc(-c2ccccc2)c1)C(=O)c1cn(C)cn1 [Compound 36] | – | not recognizable as the substrate for P-gp
33 | CC(C)CN(Cc1ccnc(-c2ccc(F)cc2)c1)C(=O)c1cn(C)cn1 [Compound 54] | – | not recognizable as the substrate for P-gp
34 | CCn1cnc(C(=O)N(Cc2ccnc(-c3ccc(F)cc3)c2)C(C)C)c1 [Compound 56] | – | not recognizable as the substrate for P-gp
35 | CC(C)N(Cc1ccnc(-c2cc(F)cc(F)c2)c1)C(=O)c1cn(C)cn1 [Compound 62] | – | not recognizable as the substrate for P-gp
36 | CC(C)N(Cc1ccnc(-c2ccc(Cl)cc2)c1)C(=O)c1cn(C)cn1 [Compound 69] | – | not recognizable as the substrate for P-gp
37 | CC(C)N(Cc1ccc(F)c(-n2cccn2)c1)C(=O)c1cn(C)cn1 [Compound 73] | – | not recognizable as the substrate for P-gp
38 | CC(C)N(Cc1ccnc(-c2ccc(OC(F)F)cc2)c1)C(=O)c1cn(C)cn1 [Compound 124] | – | not recognizable as the substrate for P-gp
39 | CN(C)c1ccc(-c2cc(CN(C(=O)c3cn(C)cn3)C3CCC3)ccc2F)cn1 [Compound 158] | – | not recognizable as the substrate for P-gp
40 | COCCN(Cc1ccnc(-c2cccc(OC(F)(F)F)c2)c1)C(=O)c1cn(C)cn1 [Compound 198] | – | not recognizable as the substrate for P-gp
